Experiment [1] deals with Acinetobacter baumannii ATCC17961. Put plainly: Antimicrobial susceptibility testing, 90% growth inhibitory concentration (IC90) determination. Format: cell-based. Conditions: Iso-Sensitest broth, OD 600 nm over 16 h, 35±2° C., read-out: ATCC 17961 IC90. As for the experimental part: (§1) 90% Growth Inhibitory Concentration (IC90) Determination The in vitro antimicrobial activity of the compounds was determined according to the following procedure: The assay used a 10-points Iso-Sensitest broth medium to measure quantitatively the in vitro activity of the compounds against Acinetobacter baumannii ATCC17961 and Pseudomonas aeruginosa ATCC27853. Stock compounds in DMSO were serially twofold diluted (e.g. range from 50 to 0.097 μM final concentration) in 384 wells microtiter plates and inoculated with 49 μl the bacterial suspension in Iso-Sensitest medium to have a final cell concentration of ˜5×10^(5) CFU/ml in a final volume/well of 50 ul/well. Microtiter plates were incubated at 35±2° C. Bacterial cell growth was determined with the measurement of optical density at λ=600 nm each 20 minutes over a time course of 16 h. Growth inhibition was calculated during the logarithmic growth of the bacterial cells with determination of the concentration inhibiting 50% (IC50) and 90% (IC90) of the growth. Table 1 provides the 90% growth inhibitory concentrations (IC90) in micromoles per liter of the compounds of present invention obtained against the strain Acinetobacter baumannii ATCC17961.

The subject of experiment [2] is Pseudomonas aeruginosa ATCC27853. Described as above. Type of experiment: cell-based. Conditions: Iso-Sensitest broth, OD 600 nm over 16 h, 35±2° C., read-out: ATCC 27853 IC90. As for the experimental part: as §1, with “Table 2” for “Table 1”, “strain Pseudomonas aeruginosa ATCC27853.” for “strain Acinetobacter baumannii ATCC17961.”

The results in this text go back to patent publication US12617798B2, “Imidazopyrazne derivatives” (Hoffmann-La Roche Inc., priority 2020, dated 2026).

Where a name gives a salt, the structure may show the parent alone.

In the case of `CCc1cc(Nc2nccn3c(-c4ccc(-c5cn(CCOC)nc5C)c(F)c4F)cnc23)ccc1C(=O)NCC1CC[N+](C)(CC(N)=O)CC1` (centres unmarked) [Example C2, N-[[1-(2-amino-2-oxo-ethyl)-1-methyl - piperidin-1-ium-4-yl]methyl]-4-[[3-[2,3-difluoro-4-[1-(2-methoxyethyl)-3-methyl-pyrazol-4-yl]phenyl]imidazo[1,2-a]pyrazin-8-yl]amino]-2-ethyl-benzamide; formate], the concentration for an effect of 90% (IC90) (commonly the concentration at which the effect reaches the 90% level) in experiment [1] was 290 nM; in experiment [2], 1200 nM.
